Reference: patent publication US20040024024A1, “Aromatic sulfone hydroxamates and their use as protease inhibitors” (priority 2001, published 2004)

Key:
Human recombinant MMP-2 = target: T1, Human recombinant MMP-2 (Homo sapiens, UniProt P08253); assay: In vitro MMP inhibition, IC50 determination (fluorogenic substrate I); type: biochemical
T1 construct: made in house; host or cells: MMP-2-transfected p2AHT2 cells
T1 sequence (P08253 110-660): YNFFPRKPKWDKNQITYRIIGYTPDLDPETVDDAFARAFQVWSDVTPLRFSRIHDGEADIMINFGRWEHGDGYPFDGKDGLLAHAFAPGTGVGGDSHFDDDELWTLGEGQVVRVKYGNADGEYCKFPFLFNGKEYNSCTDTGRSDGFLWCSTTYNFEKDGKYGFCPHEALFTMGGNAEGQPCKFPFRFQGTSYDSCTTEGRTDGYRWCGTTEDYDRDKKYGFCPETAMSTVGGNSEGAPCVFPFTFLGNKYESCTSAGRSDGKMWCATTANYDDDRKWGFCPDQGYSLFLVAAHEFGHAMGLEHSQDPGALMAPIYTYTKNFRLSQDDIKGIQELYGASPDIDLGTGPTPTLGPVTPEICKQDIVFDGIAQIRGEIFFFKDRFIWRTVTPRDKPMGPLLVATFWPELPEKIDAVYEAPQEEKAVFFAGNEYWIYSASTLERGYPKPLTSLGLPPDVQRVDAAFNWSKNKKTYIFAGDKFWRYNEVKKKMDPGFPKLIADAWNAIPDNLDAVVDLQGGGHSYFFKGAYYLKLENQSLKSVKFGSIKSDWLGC
Experimental: (§1) Several hydroxamates and salts thereof were analyzed in in vitro assays to determine their ability to inhibit the MMP cleavage of peptide substrates. Inhibition (Ki) and IC50 constants were calculated from the assayed hydroxamate-MMP interactions.
(§2) Human recombinant MMP-1, MMP-2, MMP-9, MMP-13, and MMP-14 were used in this assay. All enzymes were prepared in Assignee's laboratories following usual laboratory procedures. Protocols for the preparation and use of these enzymes are available in the scientific literature. See, e.g., Enzyme Nomenclature (Academic Press, San Diego, Calif., 1992) (and the citations therein). See also, Frije et al., J. Biol. Chem., 26(24), 16766-73 (1994).
The MMP-2 proenzyme was purified by gelatin Sepharose chromatography from MMP-2-transfected p2AHT2 cells provided by Dr. Gregory Goldberg of Washington University (St. Louis, Mo.).
(§3) All MMPs were activated using 4-aminophenylmercuric acetate (“APMA”, Sigma Chemical, St. Louis, Mo.) or trypsin. MMP-9 also was activated using human recombinant MMP-3 (purified in Assignee's laboratory following standard cloning and purification techniques).
(§4) Two fluorogenic, methoxycoumarin-containing polypeptide substrates were used in the MMP inhibition assays:
(§5) MCA-ProLeuGlyLeuDpaAlaArgNH2 (I)
(§6) Here, “Dpa” is 3-(2,4-dinitrophenyl)-L-2,3-diaminopropionyl group, and “MCA” is 7-methoxycoumarin-4-yl acetyl. Substrate (I) was purchased from Baychem (Redwood City, Calif.), and substrate II was prepared Assignee's laboratory. Substrate I was used in the IC50 determination assays, while substrate II was used in the Ki determination assays. In the absence of MMP inhibitory activity, either substrate is cleaved at the Gly-Leu peptide bond. This cleavage separates the highly fluorogenic peptide from the 2,4-dinitrophenyl quencher, thus resulting in increase of fluorescent intensity.
(§7) The stock solutions of the assayed hydroxamates (or salts thereof) were prepared in 1% dimethyl sulfoxide (DMSO). These stock solutions were diluted in Buffer A (100 mM Tris-HCl, 100 mM NaCl, 10 mM CaCl2, 0.05% polyoxyethylene 23 lauryl ether, pH 7.5) to obtain solutions with different hydroxamate concentrations, i.e., assay solutions with different concentrations of the assayed MMP inhibitory compound. The experiment controls contained the same amount of Buffer A/DMSO as the assayed sample, but contained no hydroxamate (or salt thereof).
(§8) The assays from which the IC50 determinations were made were performed as follows. The MMPs were activated with either trypsin or APMA (4-aminophenylmercuric acetate, Sigma Chemical, St. Louis, Mo.). The assayed hydroxamate samples were, incubated in Microfluorrm White Plates (Dynatech, Chantilly, VA) and analyzed on a Perkin Elmer L550 plate reader (Norwalk, Conn.). The excitation wavelength was 328 nm, and the emission wavelength—415 nm. All samples (assayed hydroxamates and controls) were incubated in separate plates at room temperature in the presence of 4 μM of MMP substrate (I). As stated in the previous paragraph, samples containing varying concentrations of the same assayed hydroxamate were prepared. Inhibition was measured as a reduction in fluorescent intensity as a function of MMP inhibitor concentration.

Human recombinant MMP-13 = target: T2, Human recombinant MMP-13 (Homo sapiens, UniProt P45452); assay: as above; type: biochemical
T2 construct: made in house; host or cells: baculovirus / insect cells
Experimental: as §1, §2
The expressed proenzyme was first purified over a heparin agarose column, and then over a chelating zinc chloride column. The proenzyme was then activated by APMA for use in the assay. Further details on baculovirus expression systems may be found in, for example, Luckow et al., J. Virol., 67, 4566-79 (1993). See also, O'Reilly et al, Baculovirus Expression Vectors: A Laboratory Manual (W. H. Freeman and Co., New York, N.Y., 1992). See also, King et al., The Baculovirus Expression System: A Laboratory Guide (Chapman & Hall, London, England, 1992).
as §3, §4, §5, §6, §7, §8

[1] = value outside parentheses (Ki in parenthesis)

IC50 (Human recombinant MMP-2; value outside parenthesis) [nM] | IC50 (Human recombinant MMP-13; value outside parenthesis) [nM] | IC50 (Human recombinant MMP-2; [1]) [nM] | IC50 (Human recombinant MMP-13; [1]) [nM] | Compound
2720 | 203 | – | – | CC(=O)NC(C)(C)CCOc1ccc(S(=O)(=O)C2(C(=O)NO)CCOCC2)cc1 [Example 242]
1010 | 304 | – | – | O=C(O)CCCOc1ccc(S(=O)(=O)C2(C(=O)NO)CCOCC2)cc1 [Example 273]
186 | 29.3 | – | – | Cc1cc(C)nc(SCCOc2ccc(S(=O)(=O)C3(C(=O)NO)CCOCC3)cc2)n1 [Example 283]
– | – | 1340 | 565 | NS(=O)(=O)CCCOc1ccc(S(=O)(=O)C2(C(=O)NO)CCOCC2)cc1 [Example 296]
– | – | 11.9 | 18.1 | CC(C)N(Cc1ccc(C(=O)CCCOc2ccc(S(=O)(=O)C3(C(=O)NO)CCOCC3)cc2)cc1)C(C)C [Example 298]
– | – | 3.2 | 0.1 | O=C(CCCOc1ccc(S(=O)(=O)C2(C(=O)NO)CCOCC2)cc1)c1ccc2ccccc2c1 [Example 299]
– | – | 12.5 | 6.7 | O=C(CCCOc1ccc(S(=O)(=O)C2(C(=O)NO)CCOCC2)cc1)c1ccccc1-c1ccccc1 [Example 300]
– | – | 9.1 | 0.2 | O=C(CCCOc1ccc(S(=O)(=O)C2(C(=O)NO)CCOCC2)cc1)Nc1cc2ccccc2cc1O [Example 312]
– | – | 7.8 | 2.5 | COc1cc(SC)ccc1C(=O)NNC(=O)CCCOc1ccc(S(=O)(=O)C2(C(=O)NO)CCOCC2)cc1 [Example 314]
– | – | 12.8 | 12.7 | O=C(NO)C1(S(=O)(=O)c2ccc(OCCCS(=O)(=O)N3CCOCC3)cc2)CCOCC1 [Example 315]
– | – | 615 | 97.3 | COc1ccc(C(=O)[C@H](O)CCOc2ccc(S(=O)(=O)C3(C(=O)NO)CCOCC3)cc2)cc1 [Example 318]
– | – | 103 | 8.6 | CON(C)C(=O)CCCCOc1ccc(S(=O)(=O)C2(C(=O)NO)CCOCC2)cc1 [Example 329]
– | – | 347 | 3.7 | COc1ccc(C(=O)NCCCOc2ccc(S(=O)(=O)C3(C(=O)NO)CCOCC3)cc2)cc1OC [Example 362]
– | – | 430 | 7 | COc1ccccc1C(=O)NCCCOc1ccc(S(=O)(=O)C2(C(=O)NO)CCOCC2)cc1 [Example 363]

The remaining lines, values behind:

Compound | IC50 (Human recombinant MMP-2; value outside parenthesis) [nM] | IC50 (Human recombinant MMP-13; value outside parenthesis) [nM] | IC50 (Human recombinant MMP-2; [1]) [nM] | IC50 (Human recombinant MMP-13; [1]) [nM]
COc1ccc(/C(C#N)=C/CCOc2ccc(S(=O)(=O)C3(C(=O)NO)CCOCC3)cc2)cc1 [Example 236] | 7.6 | 3.4 | – | –
O=C(NO)C1(S(=O)(=O)c2ccc(OCCCc3nc(-c4ccc(C(F)(F)F)cc4)no3)cc2)CCOCC1 [Example 239] | 237 | 2.5 | – | –
CN(C)c1c(F)cc(-c2noc(CCCOc3ccc(S(=O)(=O)C4(C(=O)NO)CCOCC4)cc3)n2)cc1F [Example 251] | 182 | 5.4 | – | –
COCCN1CCC(C(=O)NO)(S(=O)(=O)c2ccc(OCCCn3nc(C(F)(F)F)cc3C(F)(F)F)cc2)CC1 [Example 253] | 1450 | 32.4 | – | –
O=C(CCCOc1ccc(S(=O)(=O)C2(C(=O)NO)CCN(C3CC3)CC2)cc1)C1CCC(O)(c2ccc(Cl)cc2)CC1 (centres unmarked) [Example 255] | 51.3 | 1.9 | – | –
COc1ccc2cc(C(=O)CCCCOc3ccc(S(=O)(=O)C4(C(=O)NO)CCN(C5CC5)CC4)cc3)ccc2c1 [Example 265] | 40 | 0.2 | – | –
O=C(NO)C1(S(=O)(=O)c2ccc(OCCCc3ccc(-c4ccccc4)cc3)cc2)CCOCC1 [Example 270] | 522 | 8.1 | – | –
CCOc1ccc(-c2noc(CCCOc3ccc(S(=O)(=O)C4(C(=O)NO)CCOCC4)cc3)n2)cc1 [Example 275] | 115 | 1.7 | – | –
O=C(NO)C1(S(=O)(=O)c2ccc(OCCCS(=O)(=O)N3CCC(Oc4ccc(C(F)(F)F)cc4)CC3)cc2)CCOCC1 [Example 279] | 15.9 | 9.4 | – | –
COc1ccc(OC)c(-c2nnc(CCCOc3ccc(S(=O)(=O)C4(C(=O)NO)CCOCC4)cc3)o2)c1 [Example 291] | – | – | 100 | 8
CCOc1ccc(-c2nnc(CCCOc3ccc(S(=O)(=O)C4(C(=O)NO)CCOCC4)cc3)o2)cc1OCC [Example 303] | – | – | 50 | 9.9
O=C(NO)C1(S(=O)(=O)c2ccc(OCCCc3nnc(-c4ccc5ccccc5c4)o3)cc2)CCOCC1 [Example 304] | – | – | 139 | 0.2
O=C(NO)C1(S(=O)(=O)c2ccc(OCCCc3nc4cc5ccccc5cc4o3)cc2)CCOCC1 [Example 313] | – | – | 18.1 | < 0.1
O=C(NO)C1(S(=O)(=O)c2ccc(OCCCN(c3nc4ccccc4s3)c3nc4ccccc4s3)cc2)CCOCC1 [Example 320] | – | – | 5860 | 6110
COc1ccc2cc(C(=O)CCCCOc3ccc(S(=O)(=O)C4(C(=O)NO)CCOCC4)cc3)ccc2c1 [Example 328] | – | – | 61.3 | < 0.1
COc1ccc(C(=O)NCCCCNc2ccc(S(=O)(=O)C3(C(=O)NO)CCOCC3)cc2)cc1 [Example 331] | – | – | 386 | 261
COc1cc2c(cc1OC)C(c1ccccc1)NC(C(=O)OCCCCOc1ccc(S(=O)(=O)C3(C(=O)NO)CCOCC3)cc1)C2 (centres unmarked) [Example 336] | – | – | 301 | 19.8
COc1cc2c(cc1OC)CN(CCCCOc1ccc(S(=O)(=O)C3(C(=O)NO)CCOCC3)cc1)C(C)C2 (centres unmarked) [Example 337] | – | – | 41.9 | 12.2
COc1cc2c(cc1OC)CN(CCCCOc1ccc(S(=O)(=O)C3(C(=O)NO)CCOCC3)cc1)CC2 [Example 338] | – | – | 20.6 | 138
COc1ccc(C(=O)NCCNc2ccc(S(=O)(=O)C3(C(=O)NO)CCOCC3)cc2)cc1 [Example 339] | – | – | 1210 | 933
O=C1c2cc3ccccc3cc2C(=O)N1CCCOc1ccc(S(=O)(=O)C2(C(=O)NO)CCOCC2)cc1 [Example 343] | – | – | 7700 | 2.4
CC(C)N(Cc1ccc(C(=O)CCCCOc2ccc(S(=O)(=O)C3(C(=O)NO)CCOCC3)cc2)cc1)C(C)C [Example 344] | – | – | 12.7 | 4.6
COc1ccc(/C(C)=C/CCCOc2ccc(S(=O)(=O)C3(C(=O)NO)CCOCC3)cc2)c(OC)c1 [Example 345] | – | – | 271 | 14.3
COc1ccc(C(C)(O)CCCCOc2ccc(S(=O)(=O)C3(C(=O)NO)CCOCC3)cc2)cc1 (centres unmarked) [Example 347] | – | – | 10.3 | 1.8
COc1ccc(C(=CCCCOc2ccc(S(=O)(=O)C3(C(=O)NO)CCOCC3)cc2)c2ccc(OC)cc2)cc1 [Example 349] | – | – | 505 | 39
COc1ccc(C(=O)NCCCNc2ccc(S(=O)(=O)C3(C(=O)NO)CCOCC3)cc2)cc1 [Example 358] | – | – | 768 | 14.6
